From US20200397675A1, “METHOD FOR IMPROVING SOLUBILITY OF SPARINGLY WATER-SOLUBLE COMPONENT” (ADEKA CORPORATION, priority 2018, published 2020)

Assay: Investigation of solubility of sparingly water-soluble components in Solutions 1 to 9 (0.1 g additions until turbidity)
Conditions: 25° C.
Description: In addition, confirmation that turbidity or precipitation had not occurred was carried out by adding 0.1 g of the sparingly water-soluble component at a time, stirring for 10 minutes at 25° C. and then leaving to stand. […] Moreover, further tests were not carried out in cases where the solubility exceeded 5 [g/100 g solution].

CCCCC(CC)COCC(O)CO (stereo not drawn) [2-ethylhexyl glyceryl ether]
solubility (Comparative Example 1, Solution 1 (water 100 g)): 0.2 g/100 g solution
solubility (Comparative Example 2, Solution 4 (water 90 g, ethanol 10 g)): 0.3 g/100 g solution
solubility (Comparative Example 3, Solution 5 (water 90 g, propylene glycol 10 g)): 0.3 g/100 g solution
solubility (Comparative Example 4, Solution 6 (water 90 g, dipropylene glycol 10 g)): 0.3 g/100 g solution
solubility (Comparative Example 5, Solution 7 (water 90 g, butylene glycol 10 g)): 0.2 g/100 g solution
solubility (Comparative Example 6, Solution 8 (water 90 g, glycerin 10 g)): 0.2 g/100 g solution
solubility (Example 1, Solution 2 (water 90 g, Compound (1)-1 10 g)): 1.5 g/100 g solution
solubility (Example 2, Solution 3 (water 90 g, Compound (1)-2 10 g)): 2.3 g/100 g solution
solubility (Example 3, Solution 9 (water 80 g, Compound (1)-2 10 g, butylene glycol 10 g)): >5 g/100 g solution
